We go through 1 compound from patent publication US10336707B2, “Heterocyclic derivatives modulating activity of certain protein kinases” (EUDENDRON S.R.L., priority 2014, dated 2019).

One assay deals with T1, BaF3 NPM-ALK C1156Y (Homo sapiens, UniProt Q9UM73, C1156Y, cells depend on it).
T1 construct: fused on or other part: P06748 (Nucleophosmin)
Description: Tritiated thymidine uptake cell proliferation assay, BaF3 NPM-ALK C1156Y. Format: cell-based, murine. To be noted: cell line BaF3 NPM-ALK C1156Y; read-out: IC50 of cellular proliferation, BaF3 NPM-ALK C1156Y. On the procedure: (§1) Method: Tritiated Thymidine Uptake Cell Proliferation Assay
(§2) The following procedure was used with parent untransformed BaF3 cells, BaF3 cells transformed with the oncogenic fusion protein NPM/ALK, NPM/ALK positive SUDHL-1 cells, NPM/ALK positive SUPM2, ALK-negative HL60 cells, NPM/ALK positive KARPAS-299 cells. The parent untransformed BaF3 cells or Alk-negative HL60 cells are used as controls. Cells were seeded in U-bottomed 96-well plates at 10000 cells/well in a volume of 100 μl in supplemented medium. In the case of the parent untransformed BaF3 cells, the medium was supplemented with IL-3. Serial dilutions of inhibitors were added to the appropriate wells and volumes adjusted to 200 μl. Controls were treated with the equivalent volume of vehicle, DMSO, alone. Plates were incubated at 37° C. for 72 h. 3[H]-thymidine (1 μCi/well) was added for the last 16 h of incubation. Cells were harvested on to paper filters and 3[H]-thymidine incorporation was measured using a scintillation counter (1430 MicroBeta, Wallac, Turku, Finland). The 50% inhibitory concentration (IC50) was defined as the concentration of inhibitor, expressed in nanomolar units, that gave a 50% decrease in 3[H]-thymidine uptake compared with controls.
(§3) In Table 4 are reported the IC50 of cellular proliferation assays of example 3 versus ALK positive, mutated and negative cell lines.

The next assay concerns ALK-negative HL60 cells. Description: Tritiated thymidine uptake cell proliferation assay, HL60 (ALK-negative control). Format: cell-based. To be noted: Homo sapiens, HL-60; cell line HL60, ALK negative control; read-out: IC50 of cellular proliferation, HL60. On the procedure:
as §1, §2
Potentially toxic effects were assessed using parent untransformed BaF3 cells or ALK negative HL60 cells. […]

The target of the next assay is T2, ROS (Homo sapiens, UniProt P08922).
T2 construct: either as full-length or enzymatically active fragments; purchased ProQinase GmbH (Freiburg, Germany)
T2 sequence (P08922 1883-2347 limits assumed): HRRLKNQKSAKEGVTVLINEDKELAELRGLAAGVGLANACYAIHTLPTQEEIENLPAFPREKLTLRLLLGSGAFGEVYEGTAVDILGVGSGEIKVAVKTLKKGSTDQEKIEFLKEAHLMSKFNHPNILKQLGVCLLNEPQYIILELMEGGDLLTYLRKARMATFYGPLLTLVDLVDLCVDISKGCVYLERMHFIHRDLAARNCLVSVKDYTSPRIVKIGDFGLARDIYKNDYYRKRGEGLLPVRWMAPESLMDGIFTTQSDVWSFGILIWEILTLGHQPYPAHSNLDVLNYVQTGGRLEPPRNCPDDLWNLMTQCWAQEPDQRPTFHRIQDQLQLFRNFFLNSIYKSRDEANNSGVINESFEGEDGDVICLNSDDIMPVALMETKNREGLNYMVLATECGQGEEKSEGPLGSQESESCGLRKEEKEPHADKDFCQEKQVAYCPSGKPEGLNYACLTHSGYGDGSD
Description: Radiometric protein kinase assay (33PanQuinase Activity Assay), ROS. The format is biochemical. To be noted: ATP 0.3 μM. On the procedure: A proprietary radiometric protein kinase assay (33PanQuinase® Activity Assay) developed by ProQuinase GmbH (Freiburg, Germany) was used for measuring the kinase activity of selected protein kinases. All assays were performed in FlashPlates™ wells 96 Perkin Elmer (Boston, Mass., USA) in a reaction volume of 50 μl. The reaction mixture was obtained in 4 steps in the following order: • 1. 10 μl of a solution of non-radioactive ATP in water; • 2. 25 μl of assay buffer/[γ-^33P]-ATP mixture • 3. 5 μl of test sample in 10% DMSO • 4. 10 μl of enzyme/substrate mixture
All protein kinases provided by ProQinase were expressed in Sf9 insect cells or in E. coli as recombinant GST-fusion proteins or His-tagged proteins, either as full-length or enzymatically active fragments. […] Kinases from external vendors (CAR=Carna Biosciences Inc.; INV=Life Technologies (Invitrogen Corporation); MIL=Merck-Millipore (Millipore Corporation), were expressed, purified and quality-controlled by virtue of the vendors readings.
A stock solution of compound of formula (I) was diluted to 5×10-04M/100% DMSO. […] Incorporation of 33Pi (counting of “cpm”) was determined with a microplate scintillation counter (Microbeta, Wallac). […]
Based on each 10 corresponding residual activities, IC50 values were calculated using Prism 5.04 for Windows (Graphpad, San Diego, Calif.). […]

For another assay, the target named is T3, BaF3 NPM-ALK WT (Homo sapiens, UniProt Q9UM73).
T3 construct: fused on or other part: P06748 (Nucleophosmin)
T3 sequence (Q9UM73 whole entry, change not shown, the tested form may be a part): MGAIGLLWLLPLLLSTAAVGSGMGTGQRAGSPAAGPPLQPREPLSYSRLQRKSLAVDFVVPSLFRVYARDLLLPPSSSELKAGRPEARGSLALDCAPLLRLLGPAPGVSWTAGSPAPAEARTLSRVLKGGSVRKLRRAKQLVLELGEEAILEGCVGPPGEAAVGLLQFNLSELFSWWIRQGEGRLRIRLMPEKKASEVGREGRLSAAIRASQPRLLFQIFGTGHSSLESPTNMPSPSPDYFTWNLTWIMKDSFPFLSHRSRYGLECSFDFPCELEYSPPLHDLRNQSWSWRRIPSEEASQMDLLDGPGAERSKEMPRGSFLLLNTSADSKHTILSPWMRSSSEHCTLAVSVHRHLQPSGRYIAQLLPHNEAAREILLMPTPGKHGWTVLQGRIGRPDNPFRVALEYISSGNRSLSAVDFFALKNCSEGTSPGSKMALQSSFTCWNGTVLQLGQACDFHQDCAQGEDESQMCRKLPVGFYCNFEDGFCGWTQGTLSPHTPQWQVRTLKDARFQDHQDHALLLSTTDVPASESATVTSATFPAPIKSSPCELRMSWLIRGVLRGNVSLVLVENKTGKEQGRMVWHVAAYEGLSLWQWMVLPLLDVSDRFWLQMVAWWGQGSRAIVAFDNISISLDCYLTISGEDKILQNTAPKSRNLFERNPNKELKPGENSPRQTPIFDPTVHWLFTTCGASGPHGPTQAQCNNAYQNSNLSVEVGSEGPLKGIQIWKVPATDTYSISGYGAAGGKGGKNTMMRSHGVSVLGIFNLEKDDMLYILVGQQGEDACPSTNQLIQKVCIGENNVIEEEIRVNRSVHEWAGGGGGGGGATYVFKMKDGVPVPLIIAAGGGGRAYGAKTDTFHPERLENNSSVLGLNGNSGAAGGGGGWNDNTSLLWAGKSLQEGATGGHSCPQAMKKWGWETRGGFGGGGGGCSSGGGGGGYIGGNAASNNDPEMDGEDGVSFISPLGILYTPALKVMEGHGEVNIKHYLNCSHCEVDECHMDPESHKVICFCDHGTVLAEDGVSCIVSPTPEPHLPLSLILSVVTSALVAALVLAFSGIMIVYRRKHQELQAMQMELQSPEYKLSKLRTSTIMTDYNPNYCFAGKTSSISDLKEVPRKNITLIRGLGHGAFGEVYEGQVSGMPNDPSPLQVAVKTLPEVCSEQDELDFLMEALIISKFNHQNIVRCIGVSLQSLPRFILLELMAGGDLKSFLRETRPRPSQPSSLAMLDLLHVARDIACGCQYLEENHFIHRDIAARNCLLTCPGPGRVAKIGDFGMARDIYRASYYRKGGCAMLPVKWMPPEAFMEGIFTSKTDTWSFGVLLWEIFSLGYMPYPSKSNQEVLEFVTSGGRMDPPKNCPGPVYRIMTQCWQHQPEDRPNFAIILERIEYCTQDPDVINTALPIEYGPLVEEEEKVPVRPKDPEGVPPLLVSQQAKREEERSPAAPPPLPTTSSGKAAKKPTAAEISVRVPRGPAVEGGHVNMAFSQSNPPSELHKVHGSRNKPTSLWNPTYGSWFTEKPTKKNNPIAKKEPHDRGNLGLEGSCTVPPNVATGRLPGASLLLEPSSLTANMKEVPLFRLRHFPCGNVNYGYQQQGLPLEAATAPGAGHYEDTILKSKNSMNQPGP
Description: Tritiated thymidine uptake cell proliferation assay, BaF3 NPM-ALK WT. Format: cell-based, murine. To be noted: cell line BaF3 NPM-ALK WT; read-out: IC50 of cellular proliferation, BaF3 NPM-ALK WT. On the procedure: as §1, §2, §3

T1 sequence (Q9UM73 whole entry C1156Y, the tested form may be a part): as the sequence (Q9UM73 whole entry, change not shown, the tested form may be a part) above, with C1156Y counted along it

In the case of `CN1CCN(c2ccc(C(=O)Nc3n[nH]c4cc(-c5ccc(O)cc5)c(Cc5cc(F)cc(F)c5)cc34)c(NC3CCOCC3)c2)CC1` [Example 3, N-[5-[(3,5-difluorophenyl)methyl]-6-(4-hydroxyphenyl)-1H-indazol-3-yl]-4-(4-methylpiperazin-1-yl)-2-(tetrahydropyran-4-ylamino)benzamide], the GI50 on BaF3 NPM-ALK C1156Y stood at 34 nM; at BaF3 NPM-ALK WT, 18 nM. Also, the IC50 came out at 17000 nM in the assay with ALK-negative HL60 cells and 160 nM at ROS.
